Reference: patent US20210107874A1, “PHARMACEUTICAL FORMULATION OF CROTONYLAMINOPYRIDINE SALT” (priority 2017, published 2021)
Where “and” joins values, the source holds several entries; their conditions need not be identical. Identical values can stand only once. Like-named read-outs stand apart in the source and are kept apart here.

Assay: PK studies of formulations, plasma by HPLC-MS/MS
Assay type: in vivo
Conditions: Cattle
Experimental: The following formulations were prepared and administered to animals. Blood samples were collected at pre-defined time points and the amount of compound present in plasma at the time of sampling was determined by HPLC-MS/MS. Pharmacokinetic parameters were then calculated: Cmax, Tmax, Tlast, AUC. [table]

[1] = FormO50 (L-tartaric acid, NaOH up to pH 4.4, water), SC, 1 mg/kg
[2] = FormO50 (L-tartaric acid, NaOH up to pH 4.4, water), SC, 5 mg/kg
[3] = FormO100 (L-tartaric acid, NaOH up to pH 4.4, water), SC, 1.5 mg/kg

For `COc1cc(NCCNC(=O)/C=C/C(C)(F)F)ccn1` [Compound 5], the Tlast (FormO50 (L-tartaric acid, NaOH up to pH 4.4, water), SC, 0.5 mg/kg) was 4.4 h, the Tlast (FormO50 (L-tartaric acid, NaOH up to pH 4.4, water), SC, 0.75 mg/kg) was 5.6 h and the AUC [1] was 1149 ng·h/mL and 969 ng·h/mL. For the same molecule, the Cmax [1] was 705 ng/mL and 815 ng/mL, the Tlast [1] was 6 h and 7 h and 6.8 h and the AUC [2] was 8817 ng·h/mL. It also gave a Cmax [2] of 5975 ng/mL, a Tlast [2] of 8 h and a Tlast (FormO50 (L-tartaric acid, NaOH up to pH 4.4, water), SC, 10 mg/kg) of 12 h. For the same molecule, the AUC [3] was 1422 ng·h/mL, the Cmax [3] was 862 ng/mL and the Tlast [3] was 10.0 h and 8.5 h. It also gave a Tmax [3] of 22.8 min, a Tlast (FormU100 (L-tartaric acid, propylene glycol 400 mg, benzylalcohol, water), SC, 1.5 mg/kg) of 10.0 h and a Tlast (FormV100 (L-tartaric acid, propylene glycol 500 mg, benzylalcohol, water), SC, 1.5 mg/kg) of 10.0 h. For the same molecule, the Tlast (FormW100 (L-tartaric acid, propylene glycol 300 mg, benzylalcohol, water), SC, 1.5 mg/kg) was 9.5 h, the AUC (bovine, plasma, sc, 0.5 mg/kg, pH 4.4, FormO50 (L-tartaric acid, NaOH up to pH 4.4, water), 0.5 mg/kg, read-out: AUC) was 371 ng·h/mL and the Cmax (bovine, plasma, sc, 0.5 mg/kg, pH 4.4, FormO50 (L-tartaric acid, NaOH up to pH 4.4, water), 0.5 mg/kg, read-out: Cmax) was 305 ng/mL. It also gave a Tmax (bovine, plasma, sc, 0.5 mg/kg, pH 4.4, FormO50 (L-tartaric acid, NaOH up to pH 4.4, water), 0.5 mg/kg, read-out: Tmax) of 18 min, an AUC (bovine, plasma, sc, 0.75 mg/kg, pH 4.4, FormO50 (L-tartaric acid, NaOH up to pH 4.4, water), 0.75 mg/kg, read-out: AUC) of 616 ng·h/mL and a Cmax (bovine, plasma, sc, 0.75 mg/kg, pH 4.4, FormO50 (L-tartaric acid, NaOH up to pH 4.4, water), 0.75 mg/kg, read-out: Cmax) of 397 ng/mL. The Tmax (bovine, plasma, sc, 0.75 mg/kg, pH 4.4, FormO50 (L-tartaric acid, NaOH up to pH 4.4, water), 0.75 mg/kg, read-out: Tmax) was 30 min, the AUC (bovine, plasma, sc, 1 mg/kg, pH 4.4, FormO50 (L-tartaric acid, NaOH up to pH 4.4, water), 1 mg/kg, read-out: AUC) was 973 ng·h/mL and the Cmax (bovine, plasma, sc, 1 mg/kg, pH 4.4, FormO50 (L-tartaric acid, NaOH up to pH 4.4, water), 1 mg/kg, read-out: Cmax) was 521 ng/mL. For the same molecule, the Tmax (bovine, plasma, sc, 1 mg/kg, pH 4.4, FormO50 (L-tartaric acid, NaOH up to pH 4.4, water), 1 mg/kg, read-out: Tmax) was 36 min, the AUC (bovine, plasma, sc, 1.5 mg/kg, FormU100 (L-tartaric acid, propylene glycol 400 mg, benzylalcohol, water), 1.5 mg/kg, read-out: AUC) was 1680 ng·h/mL and the Cmax (bovine, plasma, sc, 1.5 mg/kg, FormU100 (L-tartaric acid, propylene glycol 400 mg, benzylalcohol, water), 1.5 mg/kg, read-out: Cmax) was 593 ng/mL. The Tmax (bovine, plasma, sc, 1.5 mg/kg, FormU100 (L-tartaric acid, propylene glycol 400 mg, benzylalcohol, water), 1.5 mg/kg, read-out: Tmax) was 37.8 min, the AUC (bovine, plasma, sc, 1.5 mg/kg, FormV100 (L-tartaric acid, propylene glycol 500 mg, benzylalcohol, water), 1.5 mg/kg, read-out: AUC) was 1520 ng·h/mL and the Cmax (bovine, plasma, sc, 1.5 mg/kg, FormV100 (L-tartaric acid, propylene glycol 500 mg, benzylalcohol, water), 1.5 mg/kg, read-out: Cmax) was 540 ng/mL. It also gave a Tmax (bovine, plasma, sc, 1.5 mg/kg, FormV100 (L-tartaric acid, propylene glycol 500 mg, benzylalcohol, water), 1.5 mg/kg, read-out: Tmax) of 105 min, an AUC (bovine, plasma, sc, 1.5 mg/kg, FormW100 (L-tartaric acid, propylene glycol 300 mg, benzylalcohol, water), 1.5 mg/kg, read-out: AUC) of 1520 ng·h/mL and a Cmax (bovine, plasma, sc, 1.5 mg/kg, FormW100 (L-tartaric acid, propylene glycol 300 mg, benzylalcohol, water), 1.5 mg/kg, read-out: Cmax) of 743 ng/mL. For the same molecule, the Tmax (bovine, plasma, sc, 1.5 mg/kg, FormW100 (L-tartaric acid, propylene glycol 300 mg, benzylalcohol, water), 1.5 mg/kg, read-out: Tmax) was 52.8 min, the AUC (bovine, plasma, sc, 1.5 mg/kg, pH 4.4, FormO100 (L-tartaric acid, NaOH up to pH 4.4, water), 1.5 mg/kg, read-out: AUC) was 1680 ng·h/mL and the Cmax (bovine, plasma, sc, 1.5 mg/kg, pH 4.4, FormO100 (L-tartaric acid, NaOH up to pH 4.4, water), 1.5 mg/kg, read-out: Cmax) was 1010 ng/mL. For the same molecule, the Tmax (bovine, plasma, sc, 1.5 mg/kg, pH 4.4, FormO100 (L-tartaric acid, NaOH up to pH 4.4, water), 1.5 mg/kg, read-out: Tmax) was 18.6 min, the AUC (bovine, plasma, sc, 5 mg/kg, pH 4.4, FormO50 (L-tartaric acid, NaOH up to pH 4.4, water), 5 mg/kg, read-out: AUC) was 7890 ng·h/mL and the Cmax (bovine, plasma, sc, 5 mg/kg, pH 4.4, FormO50 (L-tartaric acid, NaOH up to pH 4.4, water), 5 mg/kg, read-out: Cmax) was 3310 ng/mL. For the same molecule, the Tmax (bovine, plasma, sc, 5 mg/kg, pH 4.4, FormO50 (L-tartaric acid, NaOH up to pH 4.4, water), 5 mg/kg, read-out: Tmax) was 24 min, the AUC (bovine, plasma, sc, 10 mg/kg, pH 4.4, FormO50 (L-tartaric acid, NaOH up to pH 4.4, water), 10 mg/kg, read-out: AUC) was 18800 ng·h/mL and the Cmax (bovine, plasma, sc, 10 mg/kg, pH 4.4, FormO50 (L-tartaric acid, NaOH up to pH 4.4, water), 10 mg/kg, read-out: Cmax) was 5930 ng/mL. For the same molecule, the Tmax (bovine, plasma, sc, 10 mg/kg, pH 4.4, FormO50 (L-tartaric acid, NaOH up to pH 4.4, water), 10 mg/kg, read-out: Tmax) was 36 min.
